# Reference: article PMC11636681, “Pharmacokinetics and pharmacodynamics of antibacterial peptide NZX in Staphylococcus aureus mastitis mouse model” (Applied Microbiology and Biotechnology, 2024)
# Positions of bridges follow the written chain, without caps; N, C: chain ends. Residues, ends and D or L forms follow the SMILES beside them.
# Tests used:
# S. aureus ATCC 43300 [1] = assay: Post antibiotic effect (PAE); assay type: cell-based, Staphylococcus aureus; conditions: 2 h exposure at 1 × to 8 × MIC, 1 × 10^8 CFU/mL, triplicate
# Experimental: (§1) PAE was performed based on the method of Zhang et al. (Zhang et al. [2014]). S. aureus E48, S. aureus ATCC 25923 and S. aureus ATCC 43300 were cultured at 37 °C in MHB medium to the log-phase. Then, the diluted cells (1 × 10^8 CFU/mL) were exposed to NZX with final concentration of 1 × , 2 × , 4 × and 8 × MIC in the 48-well plates for 2 h at 37 °C. After incubation, NZX were removed by diluting 1:1000 with MHB medium. Viable counts were determined immediately after drug reconstruction and at 1–2 h interval for at least 10 h. PAE determination was calculated as PAE (h) = T-C, where T is the time (h) that required to increase by tenfold for the drug-treated viable count from the moment of drug reconstruction and C is the time (h) required to increase by tenfold for cell density without treatment. The experiments were conducted in triplication.
# S. aureus ATCC 25923 [2] = assay: Post antibiotic effect (PAE); assay type: cell-based, Staphylococcus aureus; conditions: 2 h exposure at 1 × to 8 × MIC, 1 × 10^8 CFU/mL, triplicate
# Experimental: as §1
# S. aureus E48 [3] = assay: Post antibiotic effect (PAE); assay type: cell-based, Staphylococcus aureus; conditions: 2 h exposure at 1 × to 8 × MIC, 1 × 10^8 CFU/mL, triplicate
# Experimental: as §1
# S. aureus ATCC 25923 [4] = assay: Mouse mastitis model, bacterial counts in mammary tissues; assay type: in vivo; conditions: 24 h after treatment; for bacteria reduction in mammary tissues: vs PC group
# Description: (§2) The 7 to 8-weeks old ICR mice (80 females, 40 males) were housed in independent ventilated cages, and feed with autoclaved laboratory food and water. Female mice in heat were put into the cage of males (females:males, 2:1) overnight and checked for vaginal plugs at the following morning to induce pregnancy. ICR-lactating mice were used at 6 to 8 days after the birth of the offspring. The mouse mastitis model was established as previously described (Li et al. [2017]). Mice were randomly divided into nine groups: NC group (uninfected group), PC group (infected but without treatment), NZX groups (25, 50, 100, 200 and 400 μg/gland, respectively), lincomycin group (100 μg/gland), and ceftiofur group (100 μg/gland). Each experimental group has six independent experiments with three mice. Specially, the pups were removed 1 h before the intramammary injection of both L4 (on the left) and R4 (on the right) abdominal mammal glands. A 100 μL of S. aureus strains (1 × 10^6 CFU/mL) was administrated to mice in PC, NZX, lincomycin and ceftiofur groups, and the same volume of sterile physiological saline was administrated to mice in NC group. Glands of 3 h post-infection were injected with sterile physiological saline, NZX, lincomycin, or ceftiofur. The mice were euthanized after the treatment for 24 h, and their mammary glands were dissected, weighed, and homogenized. The animal experiments were performed according to the Animal Care and Use Committee of the Feed Research Institute, Chinese Academy of Agricultural Sciences (Permit Number: AEC-CAAS-20090609) in accordance with the Guidelines for Animal Experimentation.
# (§3) After mouse sacrifice, one part of mammary tissue was taken for bacterial count, and the other part was used for the histopathological analysis. Specifically, tissues were aseptically collected immediately from the dead mice, weighted, homogenized with sterile physiological saline (1:1, W:V). Next, the homogenates were serially diluted (ten-fold dilutions) in physiological saline, plated on MHA plate, and then cultured overnight at 37 °C. The bacterial number on each plate was counted and the results were expressed as Log10 CFU per gram of mammary tissues. In addition, mammary tissues were fixed in 4% paraformaldehyde, then embedded in paraffin, cut into 5 μm sections, and later stained by hematoxylin–eosin (H&E). The stained sections were observed under a light microscope (× 200) for pathological morphology and scoring of mammary tissues (Schmidt et al. [1992]).
# S. aureus E48 [5] = assay: as above; assay type: in vivo; conditions: 3 h post-infection, 24 h after treatment, vs PC group
# Description: as §2, §3
# S. aureus ATCC 25923 [6] = assay: Mutant prevention concentration (MPC) on MHA plates; assay type: cell-based, Staphylococcus aureus; conditions: 1 × 10^10 CFU/mL, 37 °C, 72 h, each concentration three times
# Experimental: (§4) Minimal Inhibitory Concentration (MIC), Minimal Bactericidal Concentration (MBC) and Mutant Prevention Concentration (MPC).
# (§5) MPCs of NZX against the test S. aureus strain were determined as described by Plowgian et al., with some modification (Plowgian et al. [2019]). In brief, S. aureus cells were cultured to mid-log phase in Mueller–Hinton broth (MHB) medium. Then the suspensions were centrifuged (4000 rpm for 5 min) and the pellets were collected and diluted to a final concentration of 1 × 10^10 CFU/mL with MHB. […] All plates were incubated at 37 ^∘C for 72 h and the concentration corresponding to the plate with no bacterial growth was regarded as the provisional mutant prevention concentration (MPCpr). […] Lincomycin and ceftiofur were set as antibiotic controls, respectively. Each concentration was conducted three times.
# S. aureus E48 [7] = assay: as above; assay type: cell-based, Staphylococcus aureus; conditions: 1 × 10^10 CFU/mL, 37 °C, 72 h, each concentration three times
# Experimental: as §4, §5
# S. aureus ATCC 43300 [8] = assay: Cell membrane permeability, PI staining by flow cytometry; assay type: cell-based, Staphylococcus aureus
# Experimental: (§6) Flow cytometry was used for the analysis of the effects of NZX on the penetration rate of the S. aureus cell membrane (Yang et al. [2019]). The S. aureus cells in mid-log phase were adjusted to 1 × 10^8 CFU/mL and the bacteria suspensions were treated with 1 × , 2 × and 4 × MIC of NZX for 2 h at 37 °C. In addition, the cell suspensions were incubated with 2 × MIC of NZX for 0 h, 0.5 h, 1 h and 2 h, respectively. After incubation, the cells were centrifuged at 4000 rpm at 4 °C for 5 min, washed twice with sterile PBS, and pellets were resuspended in 1 mL of PBS. Next, cells were stained with 50 µg/mL propidium iodide (PI) for 30 min in the dark at room temperature, and the proportion of cells with PI positive cells to the total cells were analyzed by flow-cytometry (BD, USA). Lincomycin and ceftiofur were used as positive controls and PBS as negative control. Three replicates for each treatment were conducted.
# S. aureus ATCC 25923 [9] = assay: as above; assay type: cell-based, Staphylococcus aureus
# Experimental: as §6
# S. aureus E48 [10] = assay: as above; assay type: cell-based, Staphylococcus aureus
# Experimental: as §6
# [11] = 2 × MIC, range over 0, 0.5, 1 and 2 h
# [12] = 2 h, range over 1 × MIC, 2 × MIC and 4 × MIC
SMILES,mean PAE range (S. aureus ATCC 43300 [1]) [h],mean PAE range (S. aureus ATCC 25923 [2]) [h],mean PAE range (S. aureus E48 [3]) [h],bacteria reduction in mammary tissues (S. aureus ATCC 25923 [4]; 100 μg/gland intramammary) [Log10 CFU/g],bacteria reduction in mammary tissues (S. aureus E48 [5]; 100 μg/gland intramammary) [Log10 CFU/g],MPC (S. aureus ATCC 25923 [6]) [µM],MPC (S. aureus E48 [7]) [µM],percentage of PI-positive cells (S. aureus ATCC 43300 [8]; [11]),percentage of PI-positive cells (S. aureus ATCC 43300 [8]; [12]),percentage of PI-positive cells (S. aureus ATCC 25923 [9]; [11]),percentage of PI-positive cells (S. aureus ATCC 25923 [9]; [12]),percentage of PI-positive cells (S. aureus E48 [10]; [11]),percentage of PI-positive cells (S. aureus E48 [10]; [12]),bacterial loads in mammary tissues (S. aureus ATCC 25923 [4]; 400 μg/gland intramammary),bacteria reduction in mammary tissues (S. aureus ATCC 25923 [4]; range over 25–400 μg/gland intramammary),bacteria reduction in mammary tissues (S. aureus E48 [5]; range over 25 ~ 400 μg/gland intramammary)
CO/N=C(\C(=O)N[C@@H]1C(=O)N2C(C(=O)O)=C(CSC(=O)c3ccco3)CS[C@H]12)c1csc(N)n1 [Ceftiofur],0.82 to 1.76,1.40 to 2.29,1.30 to 2.10,6.99,5.70,234.24,5.49,1.82–24.20%,15.5–15.8%,1.35–4.31%,1.55–3.42%,2.61–23.53%,8.56–21.1%,–,–,–
CCC[C@@H]1C[C@@H](C(=O)N[C@@H]([C@H]2O[C@H](SC)[C@H](O)[C@@H](O)[C@H]2O)[C@@H](C)O)N(C)C1 [Lincomycin],–,0.94 to 1.52,2.02 to 3.27,5.23,7.37,> 1111.04,> 1111.04,–,–,–,0.45 to 0.63%,0.13–2.61%,0.08 to 0.09%,–,–,–
"CC[C@H](C)[C@@H]1NC(=O)[C@H](CO)NC(=O)[C@H](CCCCN)NC(=O)[C@@H]2CSSC[C@@H](C(=O)N[C@@H](Cc3ccc(O)cc3)C(=O)O)NC(=O)[C@H](CCCCN)NC(=O)[C@@H]3CSSC[C@H](NC(=O)[C@H](CCC(N)=O)NC(=O)[C@H]([C@@H](C)CC)NC(=O)[C@H](CC(=O)O)NC(=O)[C@H](CC(=O)O)NC(=O)[C@H](CCC(=O)O)NC(=O)[C@H](CO)NC(=O)[C@H](Cc4c[nH]c5ccccc45)NC(=O)[C@@H]4CCCN4C(=O)CNC(=O)[C@H](CC(N)=O)NC(=O)[C@@H](NC(=O)CNC(=O)[C@H](Cc4ccccc4)NC(=O)CN)CSSC[C@H](NC(=O)[C@H](Cc4ccc(O)cc4)NC(=O)CNC(=O)CNC(=O)[C@H](CCCCN)NC(=O)[C@H](Cc4ccc(O)cc4)NC(=O)CNC(=O)[C@H](CCCCN)NC1=O)C(=O)N[C@@H](C)C(=O)N[C@@H](CCCNC(=N)N)C(=O)NCC(=O)NCC(=O)N[C@@H](Cc1ccccc1)C(=O)N[C@@H](C(C)C)C(=O)N3)C(=O)N[C@@H](Cc1c[nH]cn1)C(=O)N[C@@H](CC(N)=O)C(=O)N[C@@H](Cc1c[nH]cn1)C(=O)N2 [NZX] (H-GFGCNGPWSEDDIQCHNHCKSIKGYKGGYCARGGFVCKCY-OH; disulfide 4-30, 15-37, 19-39; N-terminus and C-terminus assumed)",0.00 to 8.48,1.67 to 3.34,1.14 to 3.60,4.73,8.34,3.68,1.47,1.91 to 75.17%,57.1–75.1%,1.93 to 54.06%,12.9–48.0%,2.61 to 72.93%,25.6–70.3%,eliminated,3.35–11.09 Log10 CFU/g,0.77–8.34 Log10 CFU/g
